What was measured:
[1] = test system: Escherichia coli K-12 MG1655 evolved isolates and knockout mutants; test: Biolector growth screening of evolved isolates and reconstructed (knockout) mutants in glutaric or adipic acid; assay type: cell-based
Protocol: Biological triplicate cultures of each strain were grown to saturation overnight in 96 well deepwell plates containing 300 μL M9+1% glucose. The next day, cells were diluted 1:10 in deionized water in a clear 96 well plate and the OD600 was measured on a BioTek plate reader. 48 well FlowerPlates containing a final volume of 1.4 mL of M9+1/o glucose (plus relevant chemical) were inoculated to OD600 0.03 (with plate reader pathlength, 200 μL volume) with the overnight culture and sealed with Breathseal film. Light backscatter intensity was monitored in a Biolector microbioreactor system at 37° C. with 1000 rpm shaking.
Each re-sequenced isolate was characterized using the Biolector system for growth at the screening concentration of chemical (47.5 g/L glutaric acid or 50 g/L adipic acid) in biological triplicates.

[2] = test system: Escherichia coli K-12 MG1655 knockout mutants; test: Growth Profiler growth screening of K-12 MG1655 single, double and triple knockout mutants in glutaric or adipic acid; assay type: cell-based
[3] = strain ADIP1-1, M9 + 50 g/L adipic acid (neutralized with sodium hydroxide)
[4] = strain ADIP1-9, M9 + 50 g/L adipic acid (neutralized with sodium hydroxide)
[5] = strain ADIP2-5, M9 + 50 g/L adipic acid (neutralized with sodium hydroxide)
[6] = strain ADIP2-6, M9 + 50 g/L adipic acid (neutralized with sodium hydroxide)
[7] = strain ADIP2-10, M9 + 50 g/L adipic acid (neutralized with sodium hydroxide)
[8] = strain ADIP3-2, M9 + 50 g/L adipic acid (neutralized with sodium hydroxide)
[9] = strain ADIP3-4, M9 + 50 g/L adipic acid (neutralized with sodium hydroxide)
[10] = strain ADIP3-8, M9 + 50 g/L adipic acid (neutralized with sodium hydroxide)
[11] = strain ADIP4-8, M9 + 50 g/L adipic acid (neutralized with sodium hydroxide)
[12] = strain ADIP5-2, M9 + 50 g/L adipic acid (neutralized with sodium hydroxide)
[13] = strain ADIP5-6, M9 + 50 g/L adipic acid (neutralized with sodium hydroxide)
[14] = strain ADIP6-3, M9 + 50 g/L adipic acid (neutralized with sodium hydroxide)
[15] = strain ADIP6-9, M9 + 50 g/L adipic acid (neutralized with sodium hydroxide)
[16] = strain ADIP6-10, M9 + 50 g/L adipic acid (neutralized with sodium hydroxide)
[17] = strain ADIP7-2, M9 + 50 g/L adipic acid (neutralized with sodium hydroxide)
[18] = strain ADIP7-5, M9 + 50 g/L adipic acid (neutralized with sodium hydroxide)
[19] = strain ADIP8-3, M9 + 50 g/L adipic acid (neutralized with sodium hydroxide)
[20] = strain ADIP8-7, M9 + 50 g/L adipic acid (neutralized with sodium hydroxide)
[21] = strain ADIP8-10, M9 + 50 g/L adipic acid (neutralized with sodium hydroxide)
[22] = strain MG1655-1, M9 + 50 g/L adipic acid (neutralized with sodium hydroxide)
[23] = strain MG1655, M9 + 25 g/L adipate (neutralized)
[24] = strain MG1655, M9 + 50 g/L adipate (neutralized)
[25] = strain MG1655 kgtP::kan, M9 + 25 g/L adipate (neutralized)
[26] = strain MG1655 kgtP::kan, M9 + 50 g/L adipate (neutralized)
[27] = strain MG1655 ΔkgtP proV::kan, M9 + 25 g/L adipate (neutralized)
[28] = strain MG1655 ΔkgtP pstS::kan, M9 + 25 g/L adipate (neutralized)
[29] = strain MG1655 ΔkgtP pstS::kan, M9 + 50 g/L adipate (neutralized)
[30] = strain MG1655 ΔkgtP sspA::kan, M9 + 25 g/L adipate (neutralized)
[31] = strain MG1655 ΔkgtP ΔproV nagC::kan, M9 + 25 g/L adipate (neutralized)
[32] = strain MG1655 ΔkgtP ΔproV nagC::kan, M9 + 50 g/L adipate (neutralized)

SMILES: O=C(O)CCCCC(=O)O [adipic acid]
- mean growth rate μ [1, 3]: 0.315 h⁻¹
- mean lag time tlag [1, 3]: 16.6 h
- mean growth rate μ [1, 4]: 0.274 h⁻¹
- mean lag time tlag [1, 4]: 5.8 h
- mean growth rate μ [1, 5]: 0.332 h⁻¹
- mean lag time tlag [1, 5]: 20.1 h
- mean growth rate μ [1, 6]: 0.337 h⁻¹
- mean lag time tlag [1, 6]: 22.1 h
- mean growth rate μ [1, 7]: 0.326 h⁻¹
- mean lag time tlag [1, 7]: 20.8 h
- mean growth rate μ [1, 8]: 0.295 h⁻¹
- mean lag time tlag [1, 8]: 16.6 h
- mean growth rate μ [1, 9]: 0.305 h⁻¹
- mean lag time tlag [1, 9]: 23.3 h
- mean growth rate μ [1, 10]: 0.295 h⁻¹
- mean lag time tlag [1, 10]: 20.1 h
- mean growth rate μ [1, 11]: 0.332 h⁻¹
- mean lag time tlag [1, 11]: 6.8 h
- mean growth rate μ [1, 12]: 0.401 h⁻¹
- mean lag time tlag [1, 12]: 4.7 h
- mean growth rate μ [1, 13]: 0.370 h⁻¹
- mean lag time tlag [1, 13]: 14.4 h
- mean growth rate μ [1, 14]: 0.280 h⁻¹
- mean lag time tlag [1, 14]: 6.5 h
- mean growth rate μ [1, 15]: 0.279 h⁻¹
- mean lag time tlag [1, 15]: 6.8 h
- mean growth rate μ [1, 16]: 0.284 h⁻¹
- mean lag time tlag [1, 16]: 7.1 h
- mean growth rate μ [1, 17]: 0.189 h⁻¹
- mean lag time tlag [1, 17]: 7.6 h
- mean growth rate μ [1, 18]: 0.292 h⁻¹
- mean lag time tlag [1, 18]: 19.3 h
- mean growth rate μ [1, 19]: 0.201 h⁻¹
- mean lag time tlag [1, 19]: 6.0 h
- mean growth rate μ [1, 20]: 0.206 h⁻¹
- mean lag time tlag [1, 20]: 7.2 h
- mean growth rate μ [1, 21]: 0.200 h⁻¹
- mean lag time tlag [1, 21]: 6.8 h
- mean growth rate μ [1, 22]: 0.133 h⁻¹
- mean lag time tlag [1, 22]: 21.4 h
- mean growth rate μ [2, 23]: 0.467 h⁻¹
- mean lag time tlag [2, 23]: 6.9 h
- mean growth rate μ [2, 24]: 0.115 h⁻¹
- mean lag time tlag [2, 24]: 25.7 h
- mean growth rate μ [2, 25]: 0.534 h⁻¹
- mean lag time tlag [2, 25]: 6.4 h
- mean growth rate μ [2, 26]: 0.192 h⁻¹
- mean lag time tlag [2, 26]: 17.5 h
- mean growth rate μ [2, 27]: 0.583 h⁻¹
- mean lag time tlag [2, 27]: 6.2 h
- mean growth rate μ [2, 28]: 0.465 h⁻¹
- mean lag time tlag [2, 28]: 7.6 h
- mean growth rate μ [2, 29]: 0.139 h⁻¹
- mean lag time tlag [2, 29]: 21.3 h
- mean growth rate μ [2, 30]: 0.525 h⁻¹
- mean lag time tlag [2, 30]: 6.8 h
- mean lag time tlag ([2]; strain MG1655 ΔkgtP sspA::kan, M9 + 50 g/L adipate (neutralized)): 49.2 h
- mean growth rate μ [2, 31]: 0.501 h⁻¹
- mean lag time tlag [2, 31]: 6.8 h
- mean growth rate μ [2, 32]: 0.213 h⁻¹
- mean lag time tlag [2, 32]: 19.7 h

Reference: patent US20230139445A1, “BACTERIAL CELLS WITH IMPROVED TOLERANCE TO DIACIDS” (priority 2016, published 2023)
